Measured values taken from US20260294922A1, “Inhibitors of JUN N-Terminal Kinases (JNK1, JNK2, and/or JNK3) and Mitogen-Activated Protein Kinases (MAPK8, MAPK9, and/or MAPK10) and Methods of Using Same” (Baylor College of Medicine, priority 2023, published 2026).
Values after ≈ are worked out from the molar mass of the structure shown. “Also recorded” adds a separate entry of the source. Where two headings read alike, the source gives them in different places.

Legend:
LATS1 [1] = target: T1, LATS1 (Homo sapiens, UniProt O95835); test: KINOMEscan, LATS1; type: binding; details: 1 μM
Other MAPK = test: Eurofins KdSelect, other MAPK; type: binding; details: Table 2; IC50 nM; read-out: Other MAPK, based on Kd select results
Description: The next step was to confirm that the compounds that bound to JNK1, JNK2 or JNK3 in a competitive manner, relative to bentamapimod, were inhibitors of the ATP-dependent kinase activity in assays. In many cases, the results have been replicated at ThermoFisher using their SelectScreen technology platform. Based on knowledge about JNK inhibitors, and the results of DEC-Tec selections, a target compound profile was developed (Table 2).
The efficacy and selectivity of BEND and TANZ were used to define a realistic preliminary target compound profile (Table 2) for the next generation of JNK1-3 inhibitors for the treatment of endometriosis.

LATS1 [2] = target: T1, LATS1; test: ThermoFisher Z'Lyte assay, LATS1; type: biochemical
Description: Inhibition of LATS1 was not confirmed in a subsequent ThermoFisher Z'Lyte assay.

[3] = cited from earlier work; for clinical safety: Phase 1 volunteers / IPF
[4] = test system: immortalized human endometriotic epithelial cells (iHEEC); test: Phosphorylation of JNK and Jun in iHEEC; type: cell-based
Description: FIG. 26A depicts the effects of CDD-2728 and CDD-3013 on phosphorylation of the JNK enzyme itself (i.e., representing MEK4 inhibition) and phosphorylation of pSer63 and pSer73 on the transcription factor Jun in immortalized human endometriotic epithelial cells (iHEEC). The HEEC cells are a well characterized cell line that are relevant for the evaluation of inflammatory endpoints and measures of epithelial-to-mesenchymal transitions (EMT). […] This is consistent with the potency relationships of CDD-2728 relative to bentamapimod observed in cytokine gene expression described above in iHEEC cells and primary human stromal endometriotic cells. […] SP600125 has been frequently described as a poorly-selective JNK-I but in this context provides additional confirmation of inhibition of the JNK target kinase for CDD-2728. […] This adds further support to the critical role of JNK-1 to the therapeutic effect of the JNK inhibitors of the disclosure.

JNK1 [5] = target: T2, JNK1 (Homo sapiens, UniProt P45983); test: Promega NanoBRET intracellular target engagement (tracer K10 displacement), JNK1; type: cell-based
JNK2 [6] = target: T3, JNK2 (Homo sapiens, UniProt P45984); test: Promega NanoBRET intracellular target engagement (tracer K10 displacement), JNK2; type: cell-based
JNK3 [7] = target: T4, JNK3 (Homo sapiens, UniProt P53779); test: Promega NanoBRET intracellular target engagement (tracer K10 displacement), JNK3; type: cell-based
JNK1 [8] = target: T2, JNK1; test: JNK1 biochemical assay (piperazine series)
Description: FIG. 21B depicts concentration-dependent inhibition of JNK1 with CDD-1722 and CDD-1723. Components of CDD-1722 and CD-1723 represent alternative building blocks which may be incorporated during optimization of pharmaceutical properties of JNK-I.

[9] = In vitro metabolism in human liver microsomes; details: human, microsomes
Experimental: (§1) The target product profile seeks to deliver JNK inhibitor as a once daily oral administration. To prioritize compounds for further development, in vitro metabolism of several CDD JNK inhibitors were determined to approximate the plasma half-life and the rate of metabolism of the compounds in vivo.

JNK2 [10] = target: T3, JNK2; test: JNK2 kinase (intrinsic ATPase, Kinase-Glo) assay; type: biochemical
MEK5 = target: T5, MEK5 (Homo sapiens, UniProt Q13163); test: ThermoFisher SelectScreen, MEK5; type: binding; details: Table 4
T5 construct: purchased ThermoFisher (SelectScreen, outsourced service)
T5 sequence (Q13163 1-448): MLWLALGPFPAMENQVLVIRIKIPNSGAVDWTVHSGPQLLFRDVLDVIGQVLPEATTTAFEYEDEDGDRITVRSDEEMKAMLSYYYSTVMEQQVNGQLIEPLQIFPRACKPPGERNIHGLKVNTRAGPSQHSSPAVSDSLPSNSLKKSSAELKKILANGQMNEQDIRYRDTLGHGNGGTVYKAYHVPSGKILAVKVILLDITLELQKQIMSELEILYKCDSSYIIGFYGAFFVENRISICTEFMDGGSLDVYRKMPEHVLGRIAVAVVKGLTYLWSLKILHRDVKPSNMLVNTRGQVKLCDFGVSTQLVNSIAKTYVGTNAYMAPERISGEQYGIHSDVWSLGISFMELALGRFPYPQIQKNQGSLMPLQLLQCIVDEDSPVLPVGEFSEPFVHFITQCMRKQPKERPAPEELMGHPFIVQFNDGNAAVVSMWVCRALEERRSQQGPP
Experimental: (§2) To mitigate violation of the linear initial velocity principle, which is a problem in end-point assays when doing dose-responses, the enzyme concentration was carefully optimized, in a total assay volume of 25 μL. The assay was performed using 10 μM ATP, 0.02% Tween-20, kinase buffer from Cell Signaling (#9802) in white 384-well plates. The kinase reaction was done for 30 or 60 min at 30° C., and detection of leftover ATP was measured according to Promega's protocol. […] Fractional activities were obtained from normalized data. Non-linear regression (GraphPad Prism7) and a modified Morrison equation for tight binding was used to determine apparent Ki values for inhibitors, assuming no particular mode of inhibition. An orthogonal binding assay (LanthaScreen) was outsourced to ThermoFisher Scientific's SelectScreen Services to determine IC50 values.
(§3) One of the earliest compounds to be synthesized with favorable enzymatic activity towards JNK1 and JNK3 was CDD-2346. A KINOMEscan was performed for CDD-2346 to establish whether the selectivity of this chemical scaffold was suitable or required optimization. […] To confirm that the activity against each kinase was a true result and not a false positive, CDD-2346 was evaluated in kinase assays using ThermoFisher SelectScreen platform. The results from these assays are provided herein (Table 4). The important innovative steps described are the optimization of selectivity a) for JNK isoforms; b) for kinases considered “in-pathway”; and c) to avoid kinases considered “out-of-pathway”.

JNK1 [11] = target: T2, JNK1; test: JNK1 kinase (intrinsic ATPase, Kinase-Glo) assay; type: biochemical
In short: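 Full-length construct not stated; kinases hydrolyse ATP without peptide substrate, reaction run 30 or 60 min at 30° C, remaining ATP read by Kinase-Glo luminescence with no-kinase controls. Apparent Ki from normalized fractional activities fitted to modified Morrison tight-binding equation; orthogonal LanthaScreen binding assay gave IC50.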

CSNK1E = target: T6, CSNK1E (Homo sapiens, UniProt P49674); test: ThermoFisher SelectScreen, CSNK1E; type: binding
T6 construct: purchased ThermoFisher (SelectScreen)

hVPS34 = target: T7, hVPS34 (Homo sapiens, UniProt Q8NEB9); test: ThermoFisher SelectScreen, hVPS34; type: binding; details: Table 4
T7 construct: purchased ThermoFisher (SelectScreen, outsourced service)
Experimental: as §2, §3

JNK3 [12] = target: T4, JNK3; test: JNK3 kinase (intrinsic ATPase, Kinase-Glo) assay; type: biochemical
JNK3 [13] = target: T4, JNK3; test: ThermoFisher SelectScreen, JNK3; type: binding
[14] = In vitro metabolism in mouse liver microsomes; details: mouse, microsomes
Experimental: as §1

MEK4 = target: T8, MEK4 (Homo sapiens, UniProt P45985); test: ThermoFisher SelectScreen, MEK4; type: binding
T8 construct: purchased ThermoFisher (SelectScreen)
T8 sequence (P45985 1-399): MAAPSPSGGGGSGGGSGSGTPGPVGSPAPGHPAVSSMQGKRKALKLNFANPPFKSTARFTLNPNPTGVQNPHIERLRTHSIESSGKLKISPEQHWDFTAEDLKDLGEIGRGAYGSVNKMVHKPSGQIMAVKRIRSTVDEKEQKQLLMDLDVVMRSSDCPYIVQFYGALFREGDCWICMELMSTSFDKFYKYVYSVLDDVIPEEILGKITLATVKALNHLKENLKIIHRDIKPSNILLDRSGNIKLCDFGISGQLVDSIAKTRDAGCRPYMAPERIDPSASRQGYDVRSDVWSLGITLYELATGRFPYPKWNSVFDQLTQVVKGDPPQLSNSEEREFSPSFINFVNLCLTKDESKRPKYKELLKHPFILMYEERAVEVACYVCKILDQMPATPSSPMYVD

CSNK1G1 = target: T9, CSNK1G1 (Homo sapiens, UniProt Q9HCP0); test: ThermoFisher SelectScreen, CSNK1G1; type: binding; details: Table 4
T9 construct: purchased ThermoFisher (SelectScreen)
Experimental: as §2, §3
No activity of CDD-2728 was detected for Atypical, Mutant, or Lipid kinases. To confirm CDD-2728 inhibition results in the KINOMEscan analysis, individual binding assays were performed on the kinases to which CDD-2728 bound using ThermoFisher SelectScreen.

CSNK1D = target: T10, CSNK1D (Homo sapiens, UniProt P48730); test: ThermoFisher SelectScreen, CSNK1D; type: binding
T10 construct: purchased ThermoFisher (SelectScreen)

CLK2 = target: T11, CLK2 (Homo sapiens, UniProt P49760); test: ThermoFisher SelectScreen, CLK2; type: binding
T11 construct: purchased ThermoFisher (SelectScreen)

HepG2 cells = test: HepG2 cell viability (ATP consumption); details: CDD-2575 25 μM; CDD-2728, CDD-2624 up to 75
Experimental: This assay reflects cell viability. […] To determine if the responses observed in endometriotic epithelial cells and endometriotic stromal cell cultures were cytotoxic, cell viability was performed in HepG2 cells.

T3 sequence (P45984 whole entry): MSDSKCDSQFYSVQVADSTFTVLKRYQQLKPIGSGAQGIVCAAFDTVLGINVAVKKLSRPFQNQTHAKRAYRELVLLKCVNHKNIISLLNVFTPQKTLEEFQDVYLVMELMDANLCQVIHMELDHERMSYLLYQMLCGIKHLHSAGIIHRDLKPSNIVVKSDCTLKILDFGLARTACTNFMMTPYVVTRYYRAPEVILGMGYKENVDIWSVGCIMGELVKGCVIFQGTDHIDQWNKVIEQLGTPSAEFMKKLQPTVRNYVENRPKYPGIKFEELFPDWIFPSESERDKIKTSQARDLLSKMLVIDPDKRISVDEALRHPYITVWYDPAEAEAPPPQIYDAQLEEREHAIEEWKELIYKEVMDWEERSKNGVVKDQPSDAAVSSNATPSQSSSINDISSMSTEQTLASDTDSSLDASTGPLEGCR
T2 sequence (P45983 whole entry): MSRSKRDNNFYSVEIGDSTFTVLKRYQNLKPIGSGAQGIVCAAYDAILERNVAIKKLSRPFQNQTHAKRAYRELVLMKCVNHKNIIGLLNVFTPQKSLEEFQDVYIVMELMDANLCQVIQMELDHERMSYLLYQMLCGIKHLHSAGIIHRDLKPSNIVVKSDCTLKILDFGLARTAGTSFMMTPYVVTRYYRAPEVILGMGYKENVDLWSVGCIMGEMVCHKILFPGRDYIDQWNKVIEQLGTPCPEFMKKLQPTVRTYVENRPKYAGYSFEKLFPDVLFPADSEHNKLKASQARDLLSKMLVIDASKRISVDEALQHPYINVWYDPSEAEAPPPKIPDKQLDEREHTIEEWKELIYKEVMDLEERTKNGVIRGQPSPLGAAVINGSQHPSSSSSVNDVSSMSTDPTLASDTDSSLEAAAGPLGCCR
T4 sequence (P53779 whole entry): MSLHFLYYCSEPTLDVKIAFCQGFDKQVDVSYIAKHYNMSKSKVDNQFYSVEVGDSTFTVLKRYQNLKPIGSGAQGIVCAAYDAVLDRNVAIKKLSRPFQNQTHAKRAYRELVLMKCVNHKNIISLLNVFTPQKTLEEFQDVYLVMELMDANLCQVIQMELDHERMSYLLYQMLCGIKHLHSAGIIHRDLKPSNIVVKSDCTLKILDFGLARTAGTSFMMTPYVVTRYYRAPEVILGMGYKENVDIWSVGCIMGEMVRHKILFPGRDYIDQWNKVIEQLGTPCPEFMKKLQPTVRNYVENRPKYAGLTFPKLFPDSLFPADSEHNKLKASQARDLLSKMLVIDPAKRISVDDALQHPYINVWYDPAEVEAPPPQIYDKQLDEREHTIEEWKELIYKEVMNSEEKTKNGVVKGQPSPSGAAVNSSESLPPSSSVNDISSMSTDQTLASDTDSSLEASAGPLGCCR
T7 sequence (Q8NEB9 whole entry): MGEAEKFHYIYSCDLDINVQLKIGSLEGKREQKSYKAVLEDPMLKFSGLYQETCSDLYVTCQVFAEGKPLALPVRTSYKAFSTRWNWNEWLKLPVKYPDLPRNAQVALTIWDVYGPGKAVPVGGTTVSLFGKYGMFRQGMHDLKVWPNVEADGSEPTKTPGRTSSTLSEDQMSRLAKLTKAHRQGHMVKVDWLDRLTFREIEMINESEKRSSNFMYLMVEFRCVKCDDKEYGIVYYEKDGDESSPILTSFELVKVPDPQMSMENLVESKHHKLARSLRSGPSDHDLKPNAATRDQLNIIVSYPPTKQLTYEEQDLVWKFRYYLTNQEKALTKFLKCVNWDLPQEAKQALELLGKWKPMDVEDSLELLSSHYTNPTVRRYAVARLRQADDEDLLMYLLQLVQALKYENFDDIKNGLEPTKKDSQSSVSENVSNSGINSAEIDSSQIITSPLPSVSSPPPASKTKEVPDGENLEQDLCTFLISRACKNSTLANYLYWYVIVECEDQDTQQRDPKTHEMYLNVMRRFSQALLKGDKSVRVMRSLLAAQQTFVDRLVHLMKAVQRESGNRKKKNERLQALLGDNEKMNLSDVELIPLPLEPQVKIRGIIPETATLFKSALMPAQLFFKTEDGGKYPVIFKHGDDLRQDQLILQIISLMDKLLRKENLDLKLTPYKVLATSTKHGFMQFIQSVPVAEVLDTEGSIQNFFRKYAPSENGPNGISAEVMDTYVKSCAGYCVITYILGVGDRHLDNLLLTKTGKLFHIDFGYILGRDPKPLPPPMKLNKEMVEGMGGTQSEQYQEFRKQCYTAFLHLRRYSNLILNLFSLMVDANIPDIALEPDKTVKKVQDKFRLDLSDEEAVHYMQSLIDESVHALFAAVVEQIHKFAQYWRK
T1 sequence (O95835 whole entry): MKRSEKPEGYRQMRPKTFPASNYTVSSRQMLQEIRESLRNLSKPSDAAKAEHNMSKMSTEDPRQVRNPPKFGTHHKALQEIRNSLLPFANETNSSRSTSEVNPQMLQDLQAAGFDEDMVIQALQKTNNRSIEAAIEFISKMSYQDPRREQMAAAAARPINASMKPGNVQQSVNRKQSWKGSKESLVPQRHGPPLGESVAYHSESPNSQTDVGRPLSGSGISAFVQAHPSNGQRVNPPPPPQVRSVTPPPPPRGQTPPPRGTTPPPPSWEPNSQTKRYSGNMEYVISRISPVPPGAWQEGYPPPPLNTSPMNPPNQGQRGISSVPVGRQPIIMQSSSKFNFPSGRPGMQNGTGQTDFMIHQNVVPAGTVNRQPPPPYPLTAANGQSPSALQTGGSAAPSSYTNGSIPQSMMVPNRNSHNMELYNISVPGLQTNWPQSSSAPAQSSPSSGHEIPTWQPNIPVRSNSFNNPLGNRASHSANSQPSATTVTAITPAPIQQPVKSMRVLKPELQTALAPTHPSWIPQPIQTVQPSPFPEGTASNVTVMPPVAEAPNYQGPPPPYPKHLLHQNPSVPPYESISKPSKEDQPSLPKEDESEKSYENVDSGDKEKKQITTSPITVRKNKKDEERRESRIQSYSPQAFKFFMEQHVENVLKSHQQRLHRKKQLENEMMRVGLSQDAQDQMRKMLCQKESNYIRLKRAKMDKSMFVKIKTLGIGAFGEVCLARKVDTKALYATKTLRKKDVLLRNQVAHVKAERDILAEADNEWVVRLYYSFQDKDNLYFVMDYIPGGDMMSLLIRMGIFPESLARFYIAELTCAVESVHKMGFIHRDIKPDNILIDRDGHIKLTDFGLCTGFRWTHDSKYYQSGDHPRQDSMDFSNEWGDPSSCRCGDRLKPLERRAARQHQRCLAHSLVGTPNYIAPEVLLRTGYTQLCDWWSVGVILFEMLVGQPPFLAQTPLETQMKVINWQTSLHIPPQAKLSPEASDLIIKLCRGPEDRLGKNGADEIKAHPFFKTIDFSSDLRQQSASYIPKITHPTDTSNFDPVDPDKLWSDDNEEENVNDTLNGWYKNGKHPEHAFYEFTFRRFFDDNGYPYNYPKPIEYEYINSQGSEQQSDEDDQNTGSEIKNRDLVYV
T10 sequence (P48730 whole entry): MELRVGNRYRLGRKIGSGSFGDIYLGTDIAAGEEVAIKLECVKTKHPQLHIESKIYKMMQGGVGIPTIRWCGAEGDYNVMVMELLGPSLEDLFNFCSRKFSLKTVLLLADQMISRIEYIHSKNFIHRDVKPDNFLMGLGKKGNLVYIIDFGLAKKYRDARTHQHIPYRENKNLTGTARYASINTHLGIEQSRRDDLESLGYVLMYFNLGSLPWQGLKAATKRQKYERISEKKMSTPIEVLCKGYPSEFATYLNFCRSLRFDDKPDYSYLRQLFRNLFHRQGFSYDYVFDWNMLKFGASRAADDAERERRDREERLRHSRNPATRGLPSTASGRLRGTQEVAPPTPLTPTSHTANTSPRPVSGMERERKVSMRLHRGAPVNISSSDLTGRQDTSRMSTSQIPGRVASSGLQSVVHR
T9 sequence (Q9HCP0 whole entry): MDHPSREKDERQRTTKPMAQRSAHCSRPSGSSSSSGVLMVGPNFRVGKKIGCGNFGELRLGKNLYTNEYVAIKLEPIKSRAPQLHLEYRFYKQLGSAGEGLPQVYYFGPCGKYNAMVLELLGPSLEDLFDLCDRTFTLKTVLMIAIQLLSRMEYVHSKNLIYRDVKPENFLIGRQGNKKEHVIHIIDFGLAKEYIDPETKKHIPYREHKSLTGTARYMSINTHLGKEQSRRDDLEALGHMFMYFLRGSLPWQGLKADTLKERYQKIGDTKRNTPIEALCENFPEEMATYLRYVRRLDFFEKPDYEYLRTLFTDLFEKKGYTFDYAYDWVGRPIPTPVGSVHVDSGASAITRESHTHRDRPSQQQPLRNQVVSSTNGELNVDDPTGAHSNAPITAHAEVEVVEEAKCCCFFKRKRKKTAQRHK
T6 sequence (P49674 whole entry): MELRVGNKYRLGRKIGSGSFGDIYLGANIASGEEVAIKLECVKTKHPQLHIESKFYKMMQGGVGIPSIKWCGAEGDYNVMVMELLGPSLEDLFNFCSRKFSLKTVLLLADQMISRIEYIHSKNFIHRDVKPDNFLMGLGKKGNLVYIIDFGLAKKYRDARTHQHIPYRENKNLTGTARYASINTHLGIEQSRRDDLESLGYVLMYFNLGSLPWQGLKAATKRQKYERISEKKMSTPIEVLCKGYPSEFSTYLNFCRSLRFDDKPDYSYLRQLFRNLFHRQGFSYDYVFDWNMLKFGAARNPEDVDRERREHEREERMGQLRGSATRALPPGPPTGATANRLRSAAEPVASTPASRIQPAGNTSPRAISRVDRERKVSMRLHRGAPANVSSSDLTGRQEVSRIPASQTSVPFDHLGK

SMILES | IC50 (JNK1 [5]) [µM] | IC50 (JNK2 [6]) [µM] | IC50 (JNK3 [7]) [µM] | half-life [9] [min] | Kd (JNK2 [10]; Table 3a, read-out: Kd JNK2) [nM] | Kd (JNK1 [11]) [nM] | Kd (hVPS34) [µM] | Kd (JNK3 [12]; Table 3a, read-out: Kd JNK3) [nM] | Kd (JNK3 [13]) [nM] | solubility (Solubility) [µM] | half-life [14] [min] | Kd (MEK4) [nM] | also measured
O[C@H]1CC[C@H](Nc2ncc3nc(Nc4c(F)cc(F)cc4F)n([C@H]4CCOC4)c3n2)CC1 [CDD-985, tanzisertib] | – | – | – | – | – | – | – | – | – | – | – | – | LATS1 inhibition in KINOMEscan (LATS1 [1]): weakly inhibited; Kd (Other MAPK): > 1000 nM; LATS1 inhibition in Z'Lyte assay (LATS1 [2]): not confirmed; effect in preclinical IPF models and human IPF patients ([3]; IPF): reduced inflammation, EMT, and fibrosis; clinical safety ([3]; listed as TANZ): adverse liver effect; clinical safety ([3]; listed as Tanzisertib): deemed safe; phosphorylation of Jun at pSer63 and pSer73 [4]: lack of efficacy
CNC(=O)CN1[C@H](CCNC(=O)OCc2ccccc2)CN(Cc2cccc3ccnn23)C[C@H]1CC(=O)NCCCN(C)c1ccc(F)cc1 [CDD-1723, benzyl (2-((2R,6R)-6-(2-((3-((4-fluorophenyl)(methyl)amino)propyl)amino)-2-oxoethyl)-1-(2-(methylamino)-2-oxoethyl)-4-(pyrazolo[1,5-a]pyridin-7-ylmethyl)piperazin-2-yl)ethyl)carbamate] | 24 | 32 | 38 | – | – | – | – | – | – | – | – | – | JNK1 inhibition (JNK1 [8]; in words): good inhibition of JNK1
CNC(=O)CN1[C@@H](CCNC(=O)OCc2ccccc2)CN(Cc2cccc3ccnn23)C[C@@H]1CC(=O)NCCCN(C)c1ccc(F)cc1 [CDD-2009, benzyl (2-((2S,6S)-6-(2-((3-((4-fluorophenyl)(methyl)amino)propyl)amino)-2-oxoethyl)-1-(2-(methylamino)-2-oxoethyl)-4-(pyrazolo[1,5-a]pyridin-7-ylmethyl)piperazin-2-yl)ethyl)carbamate] | – | – | – | – | – | – | – | – | – | – | – | – | JNK1 activity relative to CDD-1723 (fold less active) (JNK1 [8]; enantiomer comparison): 20 fold
CNCc1ccc(NC(=O)c2ccn3ncc(-c4cnc(N)nc4)c3c2)cc1 [CDD-2387, 3-(2-aminopyrimidin-5-yl)-N-(4-((methylamino)methyl)phenyl)pyrazolo[1,5-a]pyridine-5-carboxamide] | – | – | – | 123 | 28.8 ± 1.8 | 2.96 ± 0.32 | 0.13 | 8.44 ± 0.66 | 8.4 | 254 (≈ 94.8 µg/mL) | 121 | 262 | Kd (MEK5): 40.7 µM; Kd (CSNK1E): 2660 nM
COc1ccc(NC(=O)c2cc3c(-c4cnc5[nH]ccc5c4)cccc3s2)cc1C(=O)N1CCCCC1 [CDD-2491, N-(4-methoxy-3-(piperidine-1-carbonyl)phenyl)-4-(1H-pyrrolo[2,3-b]pyridin-5-yl)benzo[b]thiophene-2-carboxamide] | – | – | – | 12.8 | – | 0.28 | 38 | – | 1.41 | 2.5 (≈ 1.28 µg/mL) | 15.6 | 60.2 | Kd (CSNK1G1): 95 µM; Kd (JNK2 [10]): 0.43 ± 0.09 nM; Kd (CSNK1D): 8.35 µM; Kd (JNK3 [12]): 1.41 ± 0.12 nM; Kd (CLK2): 1170 nM
CNCc1ccc(NC(=O)c2cc3c(-c4cnc5[nH]ccc5c4)cccc3s2)cc1 [CDD-2575, N-(4-((methylamino)methyl)phenyl)-4-(1H-pyrrolo[2,3-b]pyridin-5-yl)benzo[b]thiophene-2-carboxamide] | 2.2 | 2.3 | 4.8 | 409 | 1.76 ± 0.15 | 1.15 ± 0.28 | – | 2.76 ± 0.51 | – | 40.6 (≈ 16.7 µg/mL) | 117 | – | effect on HepG2 cell viability / ATP consumption (HepG2 cells): non-specific decreases in cell viability were pronounced for CDD-2575 at 25 μM; also recorded: reduced ATP consumption
